Measured values: US20260262643A1, “HERBICIDAL BENZOXAZINES” (FMC CORPORATION, priority 2022, published 2026)

Key:
barnyardgrass [1] = test: Test C preemergence; assay type: in vivo, Echinochloa crusgalli
Procedure, shortened: (§1)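 Seeds sown in loam soil–sand blend received a directed preemergence soil spray of test chemical in non-phytotoxic solvent with surfactant; postemergence plants (2–10 cm, one- to two-leaf stage) were sprayed with the same formulation. Greenhouse-held 10 days, then visually rated for injury versus untreated controls, 0 (no effect) to 100 (complete control).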

blackgrass [2] = test: Test C preemergence; assay type: in vivo, Alopecurus myosuroides
Procedure, shortened: as §1

corn [3] = test: Test C preemergence; assay type: in vivo, Zea mays
Procedure, shortened: as §1

foxtail, giant [4] = test: Test C preemergence; assay type: in vivo, Setaria faberi
Procedure, shortened: as §1

kochia [5] = test: Test C preemergence; assay type: in vivo, Bassia scoparia
Procedure, shortened: as §1

oat, wild [6] = test: Test C preemergence; assay type: in vivo, Avena fatua
Procedure, shortened: as §1

pigweed, palmer [7] = test: Test C preemergence; assay type: in vivo, Amaranthus palmeri
Procedure, shortened: as §1

ragweed [8] = test: Test C preemergence; assay type: in vivo, Ambrosia artemisiifolia
Procedure, shortened: as §1

ryegrass, Italian [9] = test: Test C preemergence; assay type: in vivo, Lolium multiflorum
Procedure, shortened: as §1

soybean [10] = test: Test C preemergence; assay type: in vivo, Glycine max
Procedure, shortened: as §1

wheat [11] = test: Test C preemergence; assay type: in vivo, Triticum aestivum
Procedure, shortened: as §1

barnyardgrass [12] = test: Test C postemergence; assay type: in vivo, Echinochloa crusgalli; details: 10 days, 0 to 100 scale (0 no effect, 100 complete control)
Procedure, shortened: as §1

blackgrass [13] = test: Test C postemergence; assay type: in vivo, Alopecurus myosuroides; details: 10 days, 0 to 100 scale (0 no effect, 100 complete control)
Procedure, shortened: as §1

corn [14] = test: Test C postemergence; assay type: in vivo, Zea mays; details: 10 days, 0 to 100 scale (0 no effect, 100 complete control)
Procedure, shortened: as §1

foxtail, giant [15] = test: Test C postemergence; assay type: in vivo, Setaria faberi; details: 10 days, 0 to 100 scale (0 no effect, 100 complete control)
Procedure, shortened: as §1

kochia [16] = test: Test C postemergence; assay type: in vivo, Bassia scoparia; details: 10 days, 0 to 100 scale (0 no effect, 100 complete control)
Procedure, shortened: as §1

oat, wild [17] = test: Test C postemergence; assay type: in vivo, Avena fatua; details: 10 days, 0 to 100 scale (0 no effect, 100 complete control)
Procedure, shortened: as §1

pigweed, palmer [18] = test: Test C postemergence; assay type: in vivo, Amaranthus palmeri; details: 10 days, 0 to 100 scale (0 no effect, 100 complete control)
Procedure, shortened: as §1

ragweed [19] = test: Test C postemergence; assay type: in vivo, Ambrosia artemisiifolia; details: 10 days, 0 to 100 scale (0 no effect, 100 complete control)
Procedure, shortened: as §1

ryegrass, Italian [20] = test: Test C postemergence; assay type: in vivo, Lolium multiflorum; details: 10 days, 0 to 100 scale (0 no effect, 100 complete control)
Procedure, shortened: as §1

soybean [21] = test: Test C postemergence; assay type: in vivo, Glycine max; details: 10 days, 0 to 100 scale (0 no effect, 100 complete control)
Procedure, shortened: as §1

wheat [22] = test: Test C postemergence; assay type: in vivo, Triticum aestivum; details: 10 days, 0 to 100 scale (0 no effect, 100 complete control)
Procedure, shortened: as §1

galium = test: Test C postemergence; assay type: in vivo, Galium aparine; details: 10 days, 0 to 100 scale (0 no effect, 100 complete control)
Procedure, shortened: as §1

horseweed = test: Test C postemergence; assay type: in vivo, Erigeron canadensis; details: 10 days, 0 to 100 scale (0 no effect, 100 complete control)
Procedure, shortened: as §1

barnyardgrass [23] = test: Test D flooded paddy test; assay type: in vivo, Echinochloa crus-galli; details: 250 g ai/ha, applied to paddy water, visual rating after 13 to 14 days, scale 0 to 100 (0 no effect, 100 complete control)
Procedure, shortened: (§2)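 Visual ratings from 0, meaning no effect, to 100, meaning complete control, were assigned against untreated controls 13 to 14 days after compounds were added to the floodwater of pots kept 3 cm deep, with plants at the 2-leaf stage.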

ducksalad = test: Test D flooded paddy test; assay type: in vivo, Heteranthera limosa; details: 250 g ai/ha, applied to paddy water, visual rating after 13 to 14 days, scale 0 to 100 (0 no effect, 100 complete control)
Procedure, shortened: as §2

rice = test: Test D flooded paddy test; assay type: in vivo, Oryza sativa; details: 250 g ai/ha, applied to paddy water, visual rating after 13 to 14 days, scale 0 to 100 (0 no effect, 100 complete control)
Procedure, shortened: as §2

sedge, umbrella = test: Test D flooded paddy test; assay type: in vivo, Cyperus difformis; details: 250 g ai/ha, applied to paddy water, visual rating after 13 to 14 days, scale 0 to 100 (0 no effect, 100 complete control)
Procedure, shortened: as §2

[24] = 500 g ai/ha, preemergence, 0 to 100 scale (0 no effect, 100 complete control)
[25] = Preemergence, 125 g ai/ha, 0 to 100 scale, 0 no effect, 100 complete control

C=C(C)c1cc(C(=O)N2C[C@H](C)Oc3c(Cl)cccc32)cc(-n2cncn2)c1 [Compound 317]
Barnyardgrass plant response rating (barnyardgrass [1]; [24]): 50 | Plant response rating, Barnyardgrass (barnyardgrass [1]; [25]): 0 | Blackgrass plant response rating (blackgrass [2]; [24]): 50 | Plant response rating, Blackgrass (blackgrass [2]; [25]): 0 | Corn plant response rating (corn [3]; [24]): 10 | Plant response rating, Corn (corn [3]; [25]): 0 | Foxtail, Giant plant response rating (foxtail, giant [4]; [24]): 90 | Plant response rating, Foxtail, Giant (foxtail, giant [4]; [25]): 10 | Kochia plant response rating (kochia [5]; [24]): 0 | Plant response rating, Kochia (kochia [5]; [25]): 0 | Oat, Wild plant response rating (oat, wild [6]; [24]): 40 | Plant response rating, Oat, Wild (oat, wild [6]; [25]): 0 | Pigweed, Palmer plant response rating (pigweed, palmer [7]; [24]): 90 | Plant response rating, Pigweed, Palmer (pigweed, palmer [7]; [25]): 20 | Ragweed plant response rating (ragweed [8]; [24]): 0 | Plant response rating, Ragweed (ragweed [8]; [25]): 0 | Ryegrass, Italian plant response rating (ryegrass, Italian [9]; [24]): 60 | Plant response rating, Ryegrass, Italian (ryegrass, Italian [9]; [25]): 40 | Soybean plant response rating (soybean [10]; [24]): 0 | Plant response rating, Soybean (soybean [10]; [25]): 0 | Wheat plant response rating (wheat [11]; [24]): 0 | Plant response rating, Wheat (wheat [11]; [25]): 0 | Plant response rating, Barnyardgrass (barnyardgrass [12]; 500 g ai/ha, postemergence): 70 | Plant response rating, Barnyardgrass (barnyardgrass [12]; Postemergence, 125 g ai/ha): 10 | Plant response rating, Blackgrass (blackgrass [13]; 500 g ai/ha, postemergence): 60 | Plant response rating, Blackgrass (blackgrass [13]; Postemergence, 125 g ai/ha): 0 | Plant response rating, Corn (corn [14]; 500 g ai/ha, postemergence): 40 | Plant response rating, Corn (corn [14]; Postemergence, 125 g ai/ha): 10 | Plant response rating, Foxtail, Giant (foxtail, giant [15]; 500 g ai/ha, postemergence): 70 | Plant response rating, Foxtail, Giant (foxtail, giant [15]; Postemergence, 125 g ai/ha): 10 | Plant response rating, Kochia (kochia [16]; 500 g ai/ha, postemergence): 70 | Plant response rating, Kochia (kochia [16]; Postemergence, 125 g ai/ha): 20 | Plant response rating, Oat, Wild (oat, wild [17]; 500 g ai/ha, postemergence): 30 | Plant response rating, Oat, Wild (oat, wild [17]; Postemergence, 125 g ai/ha): 0 | Plant response rating, Pigweed, Palmer (pigweed, palmer [18]; 500 g ai/ha, postemergence): 50 | Plant response rating, Pigweed, Palmer (pigweed, palmer [18]; Postemergence, 125 g ai/ha): 10 | Plant response rating, Ragweed (ragweed [19]; 500 g ai/ha, postemergence): 0 | Plant response rating, Ragweed (ragweed [19]; Postemergence, 125 g ai/ha): 0 | Plant response rating, Ryegrass, Italian (ryegrass, Italian [20]; 500 g ai/ha, postemergence): 40 | Plant response rating, Ryegrass, Italian (ryegrass, Italian [20]; Postemergence, 125 g ai/ha): 0 | Plant response rating, Soybean (soybean [21]; 500 g ai/ha, postemergence): 100 | Plant response rating, Soybean (soybean [21]; Postemergence, 125 g ai/ha): 70 | Plant response rating, Wheat (wheat [22]; 500 g ai/ha, postemergence): 20 | Plant response rating, Wheat (wheat [22]; Postemergence, 125 g ai/ha): 10 | Plant response rating, Galium (galium; 500 g ai/ha, postemergence): 70 | Plant response rating, Galium (galium; Postemergence, 125 g ai/ha): 50 | Plant response rating, Horseweed (horseweed; 500 g ai/ha, postemergence): 0 | Plant response rating, Horseweed (horseweed; Postemergence, 125 g ai/ha): 0 | Plant response rating, Barnyardgrass (Flood) (barnyardgrass [23]): 0 | Plant response rating, Ducksalad (Flood) (ducksalad): 0 | Plant response rating, Rice (Flood) (rice): 0 | Plant response rating, Sedge, Umbrella (Flood) (sedge, umbrella): 0
